Structures are written as SMILES. ± gives the expanded uncertainty stated by the source.

As usually defined, the mass density is mass per unit of volume. For orientation: refractive index means a measure of how strongly the sample bends light.

The conditions of series [1]: 298.2 K; 101.33 kPa; Liquid; Vibrating tube method.
A short description of series [2]: Boiling temperature at pressure P. The note with it: 101.33 kPa; Liquid.
Series [3] can be described thus: refractive index (Na D-line) (dimensionless). The conditions noted are these: 298.2 K; 101.33 kPa; Liquid; Abbe refractometer.

On to `CCO` [ethanol], for which the mass density in series [1] is 785.2 ± 0.2 kg/m3. In addition, the “Boiling temperature at pressure P” value in series [2] is 78.00 ± 0.4 °C. In addition, in series [3], the refractive index is 1.3595 ± 0.0015.
As to `C1CC[C@H]2CCCC[C@@H]2C1` [trans-decahydronaphthalene], in series [1], the mass density was found to be 868.25 ± 0.15 kg/m3. The “Boiling temperature at pressure P” value in series [2] worked out at 187.20 ± 0.4 °C. Further, the refractive index in series [3] is given as 1.4682 ± 0.0016.
